pIC50: −log10 of the molar value.
How the values were obtained:
Neuron [1] = test: Neuritogenic effect in rat DA neurons assessed as total neurite length per […] immunopositive neurons at 10 nM relative to control; format: functional
Neuron [2] = test: Neuroprotective activity against degeneration of rat DA neurons assessed as […] immunopositive neurons at 10 nM by immunofluorescence staining relative to control; format: functional
[3] = Antioxidant activity assessed as ABTS radical scavenging activity; format: functional
Neuron [4] = test: Antioxidant activity in mesecephalic neuron assessed as ROS production at 10 nM by dihydrorhodamine-123 incorporation assay relative to control; format: functional
Brain = test: Biodistribution in Swiss mouse brain at 150 mg/kg, iv; format: ADME, organism-based; set-up: dose 150 mg/kg, route intravenous; conditions: in vivo
Mus musculus = organism: Mus musculus; test: Toxicity in Swiss mouse assessed as change in body weight, food intake; format: organism-based; conditions: in vivo
Neuron [5] = test: Neuritogenic effect in rat DA neurons assessed as total neurite length per […] immunopositive neurons at 200 nM relative to control; format: functional
Neuron [6] = test: Neuroprotective activity against degeneration of rat DA neurons assessed as […] immunopositive neurons immunofluorescence staining at 200 nM relative to control; format: functional
Neuron [7] = test: Antioxidant activity in mesecephalic neuron assessed as ROS production at 10 uM by dihydrorhodamine-123 incorporation assay relative to control; format: functional

| Structure (SMILES) | Activity (Neuron [1]) | Activity (Neuron [2]) | pIC50 [3] | Activity (Neuron [4]) | also measured |
| --- | --- | --- | --- | --- | --- |
| CCCCCCCCCCCCCCC(=O)NCCc1c[nH]c2ccccc12 | 139% | 99.3% | – | – | – |
| CCCCCCCCCCCCCNCCc1c[nH]c2ccccc12 | 121.2% | 92.8% | 3.09 | – | – |
| O=C(CCCCCCCCCCCCCCO)NCCc1c[nH]c2ccccc12 | 159.3% | 108% | < 3.00 | 60.9% | – |
| CCCCC/C=C\C/C=C\CCCCCCCC(=O)NCCc1c[nH]c2ccccc12 | 154% | 111.4% | – | 56.5% | – |
| CCCCCCCCCCCCCCCCC(=O)NCCc1c[nH]c2ccccc12 | 136% | 106% | – | – | – |
| CCCCCCCCCCCCCCCCCCCCCCCNCCc1c[nH]c2ccccc12 | 141.2% | 129.6% | 3.17 | – | – |
| CCCCC/C=C\C/C=C\CCCCCCCCNCCc1c[nH]c2ccccc12 | 156.7% | 137.5% | 3.47 | 44% | – |
| CCCCCCCCCCCCCCCNCCc1c[nH]c2ccccc12 | 132.7% | 106% | – | – | – |
| CCCCCCCCCCCCCCCCNCCc1c[nH]c2ccccc12 | 197% | 131.9% | 3.21 | 47.8% | Drug uptake (Brain): 21.8 ng/mL; Activity (Mus musculus): Non-toxic |
| CCCCCCCCCCCCCCCCCCCCNCCc1c[nH]c2ccccc12 | 132.6% | 128.9% | – | – | – |
| CCCCCCCCCCCCCCCCCNCCc1c[nH]c2ccccc12 | 139% | 110.6% | – | – | – |
| CCCCCCCCCCCCCCCCCCNCCc1c[nH]c2ccccc12 | 157.3% | 129.9% | – | – | – |
| OCCCCCCCCCCCCCCCNCCc1c[nH]c2ccccc12 | 160.8% | 129.4% | 3.14 | 43.7% | – |
| CCCCCCCCCCCCC(=O)NCCc1c[nH]c2ccccc12 | 126.2% | 98.5% | < 3.00 | – | – |
| CCCCCCCCCCCCCCCCCCCCCCC(=O)NCCc1c[nH]c2ccccc12 | 145.4% | 114% | – | – | – |
| CCCCCCCCCCCCCCCC(=O)NCCc1c[nH]c2ccccc12 | 168.6% | 121.3% | < 3.00 | 55.9% | – |
| CCCCCCCCCCCCCCCCCC(=O)NCCc1c[nH]c2ccccc12 | 149.9% | 110% | – | – | – |
| CCCCCCCCCCCCCCCCCCCC(=O)NCCc1c[nH]c2ccccc12 | 147.4% | 121.8% | – | – | – |
| CCCC(=O)Nc1ncnc2c1ncn2[C@@H]1O[C@@H]2COP(=O)(O)O[C@H]2[C@H]1OC(=O)CCC [BUCLADESINE] | – | – | – | – | Activity (Neuron [5]): 333.1%; Activity (Neuron [6]): 149.9% |
| Cc1c(C)c2c(c(C)c1O)CCC(C)(C(=O)O)O2 (stereo unspecified) [TROLOX] | – | – | 3.26 | – | Activity (Neuron [7]): 44% |

— ChEMBL document CHEMBL1177677, “Tryptamine-derived alkaloids from Annonaceae exerting neurotrophin-like properties on primary dopaminergic neurons” (Bioorg Med Chem, 2010)
